Experimental findings from US20240294531A1, “COVALENT HETEROCYCLES AND USES THEREOF” (Kumquat Biosciences Inc., priority 2022, published 2024) are described below.

Test [1] has as its target BTK C481S protein (Homo sapiens (Human), UniProt Q06187, C481S). The experiment in a line: BTK C481S HTRF displacement assay. The class given is binding. The conditions noted are these: 1-hour incubation. In short, it runs like this:
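Tracer displacement read by HTRF after 1 hour at room temperature: GST-BTK C481S 2-659, 50 nM tracer 239 (Kd 54 nM), anti-GST antibody, compound in six four-fold doses from 5 μM. Percent inhibition versus DMSO fitted (bottom 0, top 100) for IC50, converted to KI via Cheng-Prusoff.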
Background: Time-resolved FRET reads energy transfer from a long-lived donor to a nearby acceptor.

The target of test [2] is BTK wildtype protein (Homo sapiens (Human), UniProt Q06187). The experiment in a line: BTK wildtype HTRF displacement assay. As to conditions: 1-hour incubation; read-out: BTK (wt) IC50. The class given is binding. In short, it runs like this:
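Tracer-displacement HTRF format: compound and tracer 239 compete at the BTK active site, detected via anti-GST-Tb on GST-tagged full-length enzyme. One-hour room-temperature incubation; compounds dosed at six four-fold steps down from 5 μM. Percent inhibition versus DMSO gives IC50 by constrained four-parameter logistic fit.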

Sequence of BTK C481S protein (Q06187 2-659 C481S): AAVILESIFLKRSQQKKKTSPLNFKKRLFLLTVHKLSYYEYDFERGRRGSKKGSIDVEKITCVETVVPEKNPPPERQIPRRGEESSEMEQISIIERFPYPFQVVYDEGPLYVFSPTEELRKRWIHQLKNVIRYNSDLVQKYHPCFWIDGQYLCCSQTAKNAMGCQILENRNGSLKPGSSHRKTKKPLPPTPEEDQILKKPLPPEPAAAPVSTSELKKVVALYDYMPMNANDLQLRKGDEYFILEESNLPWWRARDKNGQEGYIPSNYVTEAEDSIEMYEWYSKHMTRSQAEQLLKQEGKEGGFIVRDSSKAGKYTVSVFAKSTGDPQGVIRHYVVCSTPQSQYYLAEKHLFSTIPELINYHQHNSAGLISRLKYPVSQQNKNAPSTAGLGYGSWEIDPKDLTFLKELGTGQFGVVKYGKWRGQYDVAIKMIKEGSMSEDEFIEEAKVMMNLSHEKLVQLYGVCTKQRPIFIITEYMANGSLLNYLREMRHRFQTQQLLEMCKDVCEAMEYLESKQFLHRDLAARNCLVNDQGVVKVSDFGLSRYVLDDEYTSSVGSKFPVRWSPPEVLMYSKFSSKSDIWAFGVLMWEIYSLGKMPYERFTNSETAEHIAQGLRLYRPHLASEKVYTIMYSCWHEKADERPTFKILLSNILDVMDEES
Sequence of BTK wildtype protein (Q06187 2-659): as the sequence (Q06187 2-659 C481S) above, with S480C counted along it

Turning to `COc1ccc(F)cc1C(=O)NCc1ccc(-c2nn(C(C)C3CCN(C(=O)n4cncn4)C3)c3ncnc(N)c23)cc1` (stereo not shown) [Compound 172, N-(4-(1-(1-(1-(1H-1,2,4-triazole-1-carbonyl)pyrrolidin-3-yl)ethyl)-4-amino-1H-pyrazolo[3,4-d]pyrimidin-3-yl)benzyl)-5-fluoro-2-methoxybenzamide], the IC50 in test [1] and in test [2] was not above 1 µM throughout.

`COc1ccc(F)cc1C(=O)NCc1ccc(-c2nn(C[C@H]3CCCC[C@H]3CN(C)C(=O)n3cncn3)c3ncnc(N)c23)cc1` [Compound 173, N-(((1R,2S)-2-((4-amino-3-(4-((5-fluoro-2-methoxybenzamido)methyl)phenyl)-1H-pyrazolo[3,4-d]pyrimidin-1-yl)methyl)cyclohexyl)methyl)-N-methyl-1H-1,2,4-triazole-1-carboxamide]: the IC50 in test [1] and in test [2] was not above 1 µM each time.

For `COc1ccc(F)cc1C(=O)NCc1ccc(-c2nn(CC3CCCCCN3C(=O)n3cncn3)c3ncnc(N)c23)cc1` (stereo not shown) [Compound 174, N-(4-(1-((1-(1H-1,2,4-triazole-1-carbonyl)azepan-2-yl)methyl)-4-amino-1H-pyrazolo[3,4-d]pyrimidin-3-yl)benzyl)-5-fluoro-2-methoxybenzamide], the IC50 in test [1] and in test [2] was more than 1 µM in each case.

On to `NC(=O)c1cn(C[C@@H]2CCCCN2C(=O)n2cncn2)nc1-c1ccc(Oc2ccccc2)cc1` [Compound 175, (S)-1-((1-(1H-1,2,4-triazole-1-carbonyl)piperidin-2-yl)methyl)-3-(4-phenoxyphenyl)-1H-pyrazole-4-carboxamide], for which the IC50 in test [1] and in test [2] was more than 1 µM in each case.

As to `CCC(CN(C)C(=O)n1cncn1)n1nc(-c2ccc(CNC(=O)c3cc(F)ccc3OC)cc2)c2c(N)ncnc21` (stereo not shown) [Compound 176, N-(2-(4-amino-3-(4-((5-fluoro-2-methoxybenzamido)methyl)phenyl)-1H-pyrazolo[3,4-d]pyrimidin-1-yl)butyl)-N-methyl-1H-1,2,4-triazole-1-carboxamide], the IC50 in test [1] and in test [2] was more than 1 µM in each case.

Take `COc1ccc(F)cc1C(=O)NCc1ccc(-c2nn(CC3CN(C)CCN3C(=O)n3cncn3)c3ncnc(N)c23)cc1` (stereo not shown) [Compound 178, N-(4-(4-amino-1-((4-methyl-1-(1H-1,2,4-triazole-1-carbonyl)piperazin-2-yl)methyl)-1H-pyrazolo[3,4-d]pyrimidin-3-yl)benzyl)-5-fluoro-2-methoxybenzamide]: the half-maximal inhibitory concentration (IC50) in test [1] and in test [2] was more than 1 µM each time.

Take `CCN(C(=O)n1cncn1)C1CCC(n2nc(-c3ccc(Oc4ccccc4)cc3)c3c(N)ncnc32)C1` (stereo not shown) [Compound 179, N-(3-(4-amino-3-(4-phenoxyphenyl)-1H-pyrazolo[3,4-d]pyrimidin-1-yl)cyclopentyl)-N-ethyl-1H-1,2,4-triazole-1-carboxamide]: the IC50 in test [1] and in test [2] was not above 1 µM each time.

Turning to `COc1ccc(F)cc1C(=O)NCc1ccc(-c2nn(C3CCC3N(C)C(=O)n3cncn3)c3ncnc(N)c23)cc1` (stereo not shown) [Compound 181, N-(2-(4-amino-3-(4-((5-fluoro-2-methoxybenzamido)methyl)phenyl)-1H-pyrazolo[3,4-d]pyrimidin-1-yl)cyclobutyl)-N-methyl-1H-1,2,4-triazole-1-carboxamide], the IC50 in test [1] and in test [2] was not above 1 µM each time.

With `CN(C(=O)n1cncn1)[C@@H]1CCCC[C@H](n2nc(-c3ccc(Oc4ccccc4)cc3)c(C(N)=O)c2N)C1` [Compound 182, N-((1R,3S)-3-(5-amino-4-carbamoyl-3-(4-phenoxyphenyl)-1H-pyrazol-1-yl)cycloheptyl)-N-methyl-1H-1,2,4-triazole-1-carboxamide], the 50% inhibitory concentration (IC50) in test [1] and in test [2] was not above 1 µM each time.

For the compound `CN(C(=O)n1cncn1)C1CCC(C2CCNc3c(C(N)=O)c(-c4ccc(Oc5ccccc5)cc4)nn32)C1` (stereo not shown) [Compound 183, 7-(3-(N-methyl-1H-1,2,4-triazole-1-carboxamido)cyclopentyl)-2-(4-phenoxyphenyl)-4,5,6,7-tetrahydropyrazolo[1,5-a] pyrimidine-3-carboxamide], the IC50 in test [1] and in test [2] was not above 1 µM in each case.

Take `NC(=O)c1c(-c2ccc(Oc3ccccc3)cc2)nn(C[C@@H]2CCCCN2C(=O)n2cncn2)c1N` [Compound 184, (S)-1-((1-(1H-1,2,4-triazole-1-carbonyl)piperidin-2-yl)methyl)-5-amino-3-(4-phenoxyphenyl)-1H-pyrazole-4-carboxamide]: the IC50 in test [1] and in test [2] was not above 1 µM each time.

For `COc1ccc(F)cc1C(=O)NCc1ccc(-c2nn(C[C@H]3CCCCN3C(=O)n3cncn3)c3[nH]c(=O)[nH]c(=O)c23)cc1` [Compound 185, (R)-N-(4-(1-((1-(1H-1,2,4-triazole-1-carbonyl)piperidin-2-yl)methyl)-4,6-dioxo-4,5,6,7-tetrahydro-1H-pyrazolo[3,4-d]pyrimidin-3-yl)benzyl)-5-fluoro-2-methoxybenzamide], the IC50 in test [1] is not above 1 µM; in test [2], more than 1 µM.

Turning to `COc1ccc(F)cc1C(=O)NCc1ccc(-c2nn(CC(N(C)C(=O)n3cncn3)C(F)(F)F)c(N)c2C(N)=O)cc1` (stereo not shown) [Compound 186, N-(3-(5-amino-4-carbamoyl-3-(4-((5-fluoro-2-methoxybenzamido)methyl)phenyl)-1H-pyrazol-1-yl)-1,1,1-trifluoropropan-2-yl)-N-methyl-1H-1,2,4-triazole-1-carboxamide], the IC50 in test [1] and in test [2] was not above 1 µM each time.

Turning to `COc1ccc(F)cc1C(=O)NCc1ccc(-c2nn(-c3cccc(N(C)C(=O)n4cncn4)c3)c3ncnc(N)c23)cc1` [Compound 187, N-(3-(4-amino-3-(4-((5-fluoro-2-methoxybenzamido)methyl)phenyl)-1H-pyrazolo[3,4-d]pyrimidin-1-yl)phenyl)-N-methyl-1H-1,2,4-triazole-1-carboxamide], the IC50 in test [1] and in test [2] was not above 1 µM each time.

Consider `COc1ccc(F)cc1C(=O)NCc1ccc(-c2nn(C3(CN(C)C(=O)n4cncn4)CC3)c3ncnc(N)c23)cc1` [Compound 188, N-((1-(4-amino-3-(4-((5-fluoro-2-methoxybenzamido)methyl)phenyl)-1H-pyrazolo[3,4-d]pyrimidin-1-yl)cyclopropyl)methyl)-N-methyl-1H-1,2,4-triazole-1-carboxamide], for which the IC50 in test [1] was more than 1 µM; in test [2], not above 1 µM.

Take `COc1ccc(F)cc1C(=O)NCc1ccc(-c2nn(-c3cccc(CN(C)C(=O)n4cncn4)c3)c3ncnc(N)c23)cc1` [Compound 191, N-(3-(4-amino-3-(4-((5-fluoro-2-methoxybenzamido)methyl)phenyl)-1H-pyrazolo[3,4-d]pyrimidin-1-yl)benzyl)-N-methyl-1H-1,2,4-triazole-1-carboxamide]: the IC50 in test [1] and in test [2] was not above 1 µM in each case.

Consider `CN(C(=O)n1cncn1)C1CCCN(c2ncnc3[nH]ccc23)C1` (stereo not shown) [Compound 192, N-(1-(7H-pyrrolo[2,3-d]pyrimidin-4-yl)piperidin-3-yl)-N-methyl-1H-1,2,4-triazole-1-carboxamide], for which the IC50 in test [1] and in test [2] was more than 1 µM each time.

With `COc1ccc(F)cc1C(=O)NCc1ccc(-c2nn(C[C@H]3CCCC[C@@H]3CN(C)C(=O)n3cncn3)c3ncnc(N)c23)cc1` [Compound 193, N-(((1S,2S)-2-((4-amino-3-(4-((5-fluoro-2-methoxybenzamido)methyl)phenyl)-1H-pyrazolo [3,4-d]pyrimidin-1-yl)methyl)cyclohexyl)methyl)-N-methyl-1H-1,2,4-triazole-1-carboxamide], the half-inhibitory concentration (IC50) in test [1] and in test [2] was not above 1 µM each time.

With `COc1ccc(F)cc1C(=O)NCc1ccc(-c2nn(C(CCN(C)C(=O)n3cncn3)Cc3ccccc3)c3ncnc(N)c23)cc1` (stereo not shown) [Compound 195, N-(3-(4-amino-3-(4-((5-fluoro-2-methoxybenzamido)methyl)phenyl)-1H-pyrazolo[3,4-d]pyrimidin-1-yl)-4-phenylbutyl)-N-methyl-1H-1,2,4-triazole-1-carboxamide], the half-inhibitory concentration (IC50) in test [1] and in test [2] was more than 1 µM throughout.

For `CN(C(=O)n1cncn1)C1CCC(C2CCNc3c(C(N)=O)c(-c4ccc(Oc5ccccc5)cc4)nn32)CC1` (stereo not shown) [Compound 196, 7-(4-(N-methyl-1H-1,2,4-triazole-1-carboxamido)cyclohexyl)-2-(4-phenoxyphenyl)-4,5,6,7-tetrahydropyrazolo[1,5-a] pyrimidine-3-carboxamide], the IC50 in test [1] and in test [2] was not above 1 µM in each case.

On to `NC(=O)c1c(-c2ccc(Oc3ccccc3)cc2)nn(C2CCCC3C2CCN3C(=O)n2cncn2)c1N` (stereo not shown) [Compound 197, 1-(1-(1H-1,2,4-triazole-1-carbonyl)octahydro-1H-indol-4-yl)-5-amino-3-(4-phenoxy-phenyl)-1H-pyrazole-4-carboxamide], for which the IC50 in test [1] and in test [2] was not above 1 µM each time.

As to `COc1ccc(F)cc1C(=O)NCc1ccc(-c2nn(C3CCCCC3CN(C)C(=O)n3cncn3)c3ncnc(N)c23)cc1` (stereo not shown) [Compound 198, N-((2-(4-amino-3-(4-((5-fluoro-2-methoxybenzamido)methyl)phenyl)-1H-pyrazolo[3,4-d]pyrimidin-1-yl)cyclohexyl)methyl)-N-methyl-1H-1,2,4-triazole-1-carboxamide], the IC50 in test [1] and in test [2] was not above 1 µM throughout.

`CN(C(=O)n1cncn1)C1CCC2C(CNc3c(C(N)=O)c(-c4ccc(Oc5ccccc5)cc4)nn32)C1` (stereo not shown) [Compound 199, 7-(N-methyl-1H-1,2,4-triazole-1-carboxamido)-2-(4-phenoxyphenyl)-4,5,5a,6,7,8,9,9a-octahydro-pyrazolo[1,5-a]quinazoline-3-carboxamide]: the IC50 in test [1] and in test [2] was not above 1 µM throughout.

For orientation: IC50 means the concentration that inhibits the measured activity by half.
